Measurements as given in patent US20250034159A1, “INHIBITORS OF EPIDERMAL GROWTH FACTOR RECEPTOR” (ORIC Pharmaceuticals, Inc., priority 2021, published 2025).
Read-outs that look alike come from different tables or passages of the source.

Key:
Ba/F3_EGFR WT cells = assay: Biological Activity Assay D: BaF3 cell proliferation assay, EGFR wild-type (BaF3 WT); format: cell-based; conditions: Ba/F3 EGFR, read-out: BaF3 WT IC50
BaF3_EGFR d19/CS cells = assay: Biological Activity Assay D: BaF3 cell proliferation assay, EGFR exon 19 deletion/C797S (BaF3 d19/CS); format: cell-based; conditions: Ba/F3 EGFR, read-out: BaF3 d19/CS IC50
[1] = biological target: recombinant human EGFR L858R/C797S double mutant protein (Homo sapiens (Human), UniProt P00533, C797S/L858R); assay: Biological Activity Assay B: biochemical assay against EGFR L858R/C797S protein (EGFR LR/CS)
recombinant human EGFR L858R/C797S double mutant protein, sequence (P00533 25-1210 C797S/L858R): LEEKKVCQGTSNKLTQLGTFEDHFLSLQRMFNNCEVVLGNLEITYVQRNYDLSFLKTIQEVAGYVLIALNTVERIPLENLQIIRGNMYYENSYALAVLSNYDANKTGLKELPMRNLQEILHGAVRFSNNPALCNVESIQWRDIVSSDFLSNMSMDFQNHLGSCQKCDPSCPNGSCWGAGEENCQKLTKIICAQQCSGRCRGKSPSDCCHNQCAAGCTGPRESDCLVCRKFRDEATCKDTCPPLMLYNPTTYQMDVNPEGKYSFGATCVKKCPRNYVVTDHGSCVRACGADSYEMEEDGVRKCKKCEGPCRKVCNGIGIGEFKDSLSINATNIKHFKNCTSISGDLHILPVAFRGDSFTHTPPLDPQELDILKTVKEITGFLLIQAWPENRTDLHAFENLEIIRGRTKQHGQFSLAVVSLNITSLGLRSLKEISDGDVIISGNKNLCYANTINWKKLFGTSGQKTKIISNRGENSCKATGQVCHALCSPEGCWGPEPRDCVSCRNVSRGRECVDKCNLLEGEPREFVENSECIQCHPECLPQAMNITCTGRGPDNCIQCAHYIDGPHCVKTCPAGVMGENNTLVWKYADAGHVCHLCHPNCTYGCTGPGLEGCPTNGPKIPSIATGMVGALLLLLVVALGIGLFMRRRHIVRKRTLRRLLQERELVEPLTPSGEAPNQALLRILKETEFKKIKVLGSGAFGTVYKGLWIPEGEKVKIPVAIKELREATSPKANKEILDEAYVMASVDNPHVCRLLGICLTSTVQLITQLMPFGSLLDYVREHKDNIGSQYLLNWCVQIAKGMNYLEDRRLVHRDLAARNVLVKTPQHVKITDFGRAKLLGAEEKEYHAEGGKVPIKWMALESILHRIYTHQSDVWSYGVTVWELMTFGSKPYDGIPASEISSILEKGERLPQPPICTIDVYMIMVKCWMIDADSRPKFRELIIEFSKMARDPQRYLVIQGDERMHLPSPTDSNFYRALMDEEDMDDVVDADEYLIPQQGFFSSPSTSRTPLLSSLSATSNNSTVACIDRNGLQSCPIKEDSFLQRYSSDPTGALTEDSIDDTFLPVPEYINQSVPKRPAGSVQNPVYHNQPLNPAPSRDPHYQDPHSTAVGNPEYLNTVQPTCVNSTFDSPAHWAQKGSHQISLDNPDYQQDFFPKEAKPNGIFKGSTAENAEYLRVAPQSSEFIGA
Outline: (§1)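 Compounds were tested as 16-point serial dilutions (final DMSO 2.5%) with a Phosphosens peptide sensor/ATP working solution (40 uM/4 mM). The signal was read kinetically over 90 cycles at 120 s intervals. IC50s came from 4-parameter fits of per-well slopes.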

[2] = biological target: recombinant human EGFR exon 19 deletion/C797S double mutant protein (Homo sapiens (Human), UniProt P00533, C797S/DEL746-750); assay: Biological Activity Assay C: biochemical assay against EGFR exon 19 deletion/C797S protein (EGFR d19/CS)
recombinant human EGFR exon 19 deletion/C797S double mutant protein, sequence (P00533 other isoform, or with tags, fused parts or gaps C797S/del 1-668/del 746-750 limits assumed): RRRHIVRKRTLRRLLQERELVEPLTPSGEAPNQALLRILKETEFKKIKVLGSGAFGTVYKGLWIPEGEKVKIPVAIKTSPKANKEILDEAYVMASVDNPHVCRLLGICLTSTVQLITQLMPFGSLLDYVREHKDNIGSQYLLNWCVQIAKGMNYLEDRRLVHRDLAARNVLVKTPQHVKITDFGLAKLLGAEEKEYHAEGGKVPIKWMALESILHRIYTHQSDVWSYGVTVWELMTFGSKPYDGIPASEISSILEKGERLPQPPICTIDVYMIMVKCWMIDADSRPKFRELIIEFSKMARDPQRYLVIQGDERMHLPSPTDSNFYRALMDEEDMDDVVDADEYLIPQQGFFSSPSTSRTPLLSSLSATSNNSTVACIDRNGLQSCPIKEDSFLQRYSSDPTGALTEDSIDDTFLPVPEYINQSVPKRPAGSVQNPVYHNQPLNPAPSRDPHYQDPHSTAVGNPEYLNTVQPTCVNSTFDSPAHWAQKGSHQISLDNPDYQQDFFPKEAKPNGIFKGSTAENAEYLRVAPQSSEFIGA
Outline: as §1

BaF3_EGFR LR/CS cells = assay: Biological Activity Assay D: BaF3 cell proliferation assay, EGFR L858R/C797S mutant (BaF3 LR/CS); format: cell-based; conditions: Ba/F3 EGFR, read-out: BaF3 LR/CS IC50
[3] = Ba/F3_EGFR WT cells, ~72 hours, CellTiter-Glo
[4] = BaF3_EGFR d19/CS cells, ~72 hours, CellTiter-Glo
[5] = BaF3_EGFR LR/CS cells, ~72 hours, CellTiter-Glo

IC50 (Ba/F3_EGFR WT cells; [3]) [nM]	IC50 (BaF3_EGFR d19/CS cells; [4]) [nM]	IC50 [1] [nM]	IC50 [2] [nM]	IC50 (BaF3_EGFR LR/CS cells; [5]) [nM]	Structure (SMILES)	IC50 (Ba/F3_EGFR WT cells; 72 h) [nM]	IC50 (BaF3_EGFR d19/CS cells; 72 h) [nM]	IC50 (BaF3_EGFR LR/CS cells; 72 h) [nM]
1940	20.8	0.307	0.368	106	O=S1(=O)CC(CCn2cc(-c3ncnc4oc(-c5ccccc5)cc34)c(-c3ccc(F)cc3)n2)C1 [Example 52, 3-{2-[3-(4-Fluorophenyl)-4-(6-phenylfuro[2,3-d]pyrimidin-4-yl)-1H-pyrazol-1-yl]ethyl}-1λ6-thietane-1,1-dione]	–	–	–
1280	21.4	0.247	0.29	78.5	CS(=O)(=O)CCCn1cc(-c2ncnc3oc(-c4ccccc4)cc23)c(-c2ccc(F)cc2)n1 [Example 55, 4-{3-(4-Fluorophenyl)-1-[3-(methanesulfonyl)propyl]-1H-pyrazol-4-yl}-6-phenylfuro[2,3-d]pyrimidine]	–	–	–
5950	213	1.27	0.752	236	CC1(Cn2cc(-c3ncnc4oc(-c5ccccc5)cc34)c(-c3ccc(F)cc3)n2)COC1 [Example 59, 4-{3-(4-fluorophenyl)-1-[(3-methyloxetan-3-yl)methyl]-1H-pyrazol-4-yl}-6-phenylfuro[2,3-d]pyrimidine]	–	–	–
1140	24.4	0.601	0.907	73.2	CN(C)S(=O)(=O)CCCn1cc(-c2ncnc3oc(-c4ccccc4)cc23)c(-c2ccc(F)cc2)n1 [Example 61, 3-[3-(4-Fluorophenyl)-4-(6-phenylfuro[2,3-d]pyrimidin-4-yl)-1H-pyrazol-1-yl]-N,N-dimethylpropane-1-sulfonamide]	–	–	–
1150	30.1	0.527	0.703	45	CC(O)CCn1cc(-c2ncnc3oc(-c4ccccc4)cc23)c(-c2ccc(F)cc2)n1 (centres unmarked) [Example 62, 4-[3-(4-Fluorophenyl)-4-(6-phenylfuro[2,3-d]pyrimidin-4-yl)-1H-pyrazol-1-yl]butan-2-ol]	–	–	–
1460	62.9	0.779	1.1	99.1	Fc1ccc(-c2nn(CCC3COC3)cc2-c2ncnc3oc(-c4ccccc4)cc23)cc1 [Example 64, 4-{3-(4-Fluorophenyl)-1-[2-(oxetan-3-yl)ethyl]-1H-pyrazol-4-yl}-6-phenylfuro[2,3-d]pyrimidine]	–	–	–
589	19.9	0.263	0.341	24.3	NS(=O)(=O)CCCn1cc(-c2ncnc3oc(-c4ccccc4)cc23)c(-c2ccc(F)cc2)n1 [Example 65, 3-[3-(4-Fluorophenyl)-4-(6-phenylfuro[2,3-d]pyrimidin-4-yl)-1H-pyrazol-1-yl]propane-1-sulfonamide]	–	–	–
2340	68.6	0.452	0.378	40.2	Fc1ccc(-c2nn(CC3CCO3)cc2-c2ncnc3oc(-c4ccccc4)cc23)cc1 (centres unmarked) [Example 69, 4-{3-(4-Fluorophenyl)-1-[(oxetan-2-yl)methyl]-1H-pyrazol-4-yl}-6-phenylfuro[2,3-d]pyrimidine]	–	–	–
681	11.5	0.328	0.346	7.9	N#CCCn1cc(-c2ncnc3oc(-c4ccccc4)cc23)c(-c2ccc(F)cc2)n1 [Example 70, 3-[3-(4-Fluorophenyl)-4-(6-phenylfuro[2,3-d]pyrimidin-4-yl)-1H-pyrazol-1-yl]propanenitrile]	–	–	–
2620	151	1.25	1.62	84.1	FCCCCn1cc(-c2ncnc3oc(-c4ccccc4)cc23)c(-c2ccc(F)cc2)n1 [Example 71, 4-[1-(4-fluorobutyl)-3-(4-fluorophenyl)-1H-pyrazol-4-yl]-6-phenylfuro[2,3-d]pyrimidine]	–	–	–

The remaining lines, values behind:

Structure (SMILES)	IC50 (Ba/F3_EGFR WT cells; [3]) [nM]	IC50 (BaF3_EGFR d19/CS cells; [4]) [nM]	IC50 [1] [nM]	IC50 [2] [nM]	IC50 (BaF3_EGFR LR/CS cells; [5]) [nM]	IC50 (Ba/F3_EGFR WT cells; 72 h) [nM]	IC50 (BaF3_EGFR d19/CS cells; 72 h) [nM]	IC50 (BaF3_EGFR LR/CS cells; 72 h) [nM]
O[C@H]1C[C@H](Cn2ncc(-c3ncnc4oc(-c5ccccc5)cc34)c2-c2ccc(F)cc2)C1 [Example 54, (1r,3r)-3-{[5-(4-fluorophenyl)-4-(6-phenylfuro[2,3-d]pyrimidin-4-yl)-1H-pyrazol-1-yl]methyl}cyclobutan-1-ol]	8860	837	15.8	20.1	992	–	–	–
CS(=O)(=O)n1ncc(-c2ncnc3oc(-c4ccccc4)cc23)c1-c1ccc(F)cc1 [Example 56, 4-[5-(4-fluorophenyl)-1-(methanesulfonyl)-1H-pyrazol-4-yl]-6-phenylfuro[2,3-d]pyrimidine]	5490	184	3.58	4.58	224	–	–	–
CC(C)(O)CCc1nc(-c2ccc(F)cc2)c(-c2ncnc3oc(-c4ccccc4)nc23)o1 [Example 57, 4-[4-(4-fluorophenyl)-5-(2-phenyl[1,3]oxazolo[5,4-d]pyrimidin-7-yl)-1,3-oxazol-2-yl]-2-methylbutan-2-ol]	7390	1290	16.8	10.3	689	–	–	–
CC(O)Cn1cc(-c2ncnc3oc(-c4ccccc4)cc23)c(-c2ccc(F)cc2)n1 (centres unmarked) [Example 58, 1-[3-(4-Fluorophenyl)-4-(6-phenylfuro[2,3-d]pyrimidin-4-yl)-1H-pyrazol-1-yl]propan-2-ol]	–	–	0.349	0.177	–	2100	43.7	58.2
Fc1ccc(-c2n[nH]cc2-c2ncnc3oc(-c4ccccc4)cc23)cc1 [Example 60, 4-[3-(4-Fluorophenyl)-1H-pyrazol-4-yl]-6-phenylfuro[2,3-d]pyrimidine]	2270	118	0.526	0.419	88.3	–	–	–
CC(C)(O)CCc1nc(-c2ccc(F)cc2)c(-c2ncnc3sc(-c4ccccc4)cc23)o1 [Example 66, 4-[4-(4-fluorophenyl)-5-(6-phenylthieno[2,3-d]pyrimidin-4-yl)-1,3-oxazol-2-yl]-2-methylbutan-2-ol]	> 20000	1290	14.5	8.12	2690	–	–	–
CC(C)(O)CCn1cc(-c2ncnc3sc(-c4ccccc4)cc23)c(-c2ccc(F)cc2)n1 [Example 67, 4-[3-(4-fluorophenyl)-4-(6-phenylthieno[2,3-d]pyrimidin-4-yl)-1H-pyrazol-1-yl]-2-methylbutan-2-ol]	8040	1050	15.6	18.6	1630	–	–	–
OCCCc1nc(-c2ccc(F)cc2)c(-c2ncnc3sc(-c4ccccc4)cc23)o1 [Example 74, 3-[4-(4-fluorophenyl)-5-(6-phenylthieno[2,3-d]pyrimidin-4-yl)-1,3-oxazol-2-yl]propan-1-ol]	> 20000	920	9.37	2.9	267	–	–	–
COC1(Cn2cc(-c3ncnc4oc(-c5ccccc5)cc34)c(-c3ccc(F)cc3)n2)COC1 [Example 75, 4-{3-(4-fluorophenyl)-1-[(3-methoxyoxetan-3-yl)methyl]-1H-pyrazol-4-yl}-6-phenylfuro[2,3-d]pyrimidine]	5920	150	1.01	1.49	131	–	–	–
